The target of assay [1] is T1, μ-opioid receptor (Homo sapiens (Human), UniProt P35372). The assay can be described thus: μ-opioid receptor [35S]GTPγS functional assay (HEK). The class given is biochemical. The conditions noted are these: for Emax: HEK, GTPγS, relative to DAMGO. The procedure: (§1) [^35S]GTPγS functional assays were conducted using freshly thawed μ-receptor membranes prepared in-house from a cell line expressing recombinant μ opioid receptor in a HEK-293, CHO or U-2 OS cell background, or purchased from a commercial source (Perkin Elmer, Shelton, Conn.; or DiscovRx, Fremont, Calif.). Assay reactions were prepared by sequentially adding the following reagents to binding buffer (100 mM NaCl, 10 mM MgCl2, 20 mM HEPES, pH 7.4) on ice (final concentrations indicated): membrane protein (0.026 mg/mL), saponin ([…]), GDP ([…]) and [^35S]GTPγS (0.20 nM; Perkin Elmer, Shelton, Conn.). The prepared membrane solution (190 μl/well) was transferred to 96-shallow well polypropylene plates containing 10 μl of 20× concentrated stock solutions of the agonist [D-Ala^2, N-methyl-Phe^4 Gly-ol^5]-enkephalin (DAMGO) prepared in dimethyl sulfoxide (DMSO). Plates were incubated for […] at about 25° C. with shaking. Reactions were terminated by rapid filtration onto 96-well Unifilter GF/B filter plates (Perkin Elmer, Shelton, Conn.) using a 96-well tissue harvester (Perkin Elmer, Shelton, Conn.) followed by three filtration washes with 200 μl of ice-cold wash buffer (10 mM NaH2PO4, 10 mM Na2HPO4, pH 7.4). Filter plates were subsequently dried at 50° C. for 2-3 hours. BetaScint scintillation cocktail (Perkin Elmer, Shelton, Conn.) was added (50 μl/well) and plates were counted using a Packard Top-Count for 1 min/well. Data were analyzed using the sigmoidal dose-response curve fitting functions in GraphPad PRISM v. 3.0, or an in-house function for non-linear, sigmoidal dose-response curve-fitting.
(§2) μ GTP EC50 is the concentration of a compound providing 50% of the maximal response for the compound at a μ-opioid receptor.
(§3) μ GTP Emax (%) is the maximal effect elicited by a compound relative to the effect elicited by DAMGO, a standard agonist. Generally, the μ GTP Emax (%) value measures the efficacy of a compound to treat or prevent pain or other Conditions.
(§4) In TABLE 3, activity response of certain Compounds of the Invention to the μ- and κ-opioid receptors was determined as described above for functional assays using HEK cells.

The target of assay [2] is T1, μ-opioid receptor. As to the kind of experiment: μ-opioid receptor radioligand dose-displacement binding assay (HEK). The settings on record: HEK cells; [3H]-diprenorphine. The protocol:
Radioligand dose-displacement binding assays for μ-opioid receptors used 0.3 nM [^3H]-diprenorphine (Perkin Elmer, Shelton, Conn.), with […] membrane protein/well in a final volume of 500 μl binding buffer (10 mM MgCl2, 1 mM EDTA, 5% DMSO, 50 mM HEPES, pH 7.4). Reactions were carried out in the absence or presence of increasing concentrations of unlabeled naloxone. All reactions were conducted in 96-deep well polypropylene plates for 2 hours at room temperature. Binding reactions were terminated by rapid filtration onto 96-well Unifilter GF/C filter plates (Perkin Elmer, Shelton, Conn.), presoaked in 0.5% polyethylenimine using a 96-well tissue harvester (Perkin Elmer, Shelton, Conn.) followed by performing three filtration washes with 500 μl of ice-cold binding buffer. Filter plates were subsequently dried at 50° C. for 2-3 hours. BetaScint scintillation cocktail (Perkin Elmer, Shelton, Conn.) was added (50 μl/well), and plates were counted using a Packard Top-Count for 1 min/well. The data were analyzed using the one-site competition curve fitting functions in GraphPad PRISM™ v. 3.0 or higher (San Diego, Calif.), or an in-house function for one-site competition curve-fitting.
(§5) In TABLE 2, binding affinity of certain Compounds of the Invention to the μ- and κ-opioid receptors was determined as described above using HEK cells.

Assay [3] deals with T2, κ opioid receptor (Homo sapiens (Human), UniProt P41145). As to the kind of experiment: κ-opioid receptor [35S]GTPγS functional assay (U-2 OS). The class given is biochemical. The conditions noted are these: for Emax: U2OS, GTPγS, relative to U69,593. The protocol:
(§6) Functional [^35S]GTPγS binding assays were conducted as follows. K opioid receptor membrane solution was prepared by sequentially adding final concentrations of 0.026 μg/μl membrane protein (in-house), 10 μg/mL saponin, 3 μM GDP and 0.20 nM [^35S]GTPγS to binding buffer (100 mM NaCl, 10 mM MgCl2, 20 mM HEPES, pH 7.4) on ice. The prepared membrane solution (190 μl/well) was transferred to 96-shallow well polypropylene plates containing 10 μl of 20× concentrated stock solutions of agonist prepared in DMSO. Plates were incubated for 30 min at a temperature of about 25° C. with shaking. Reactions were terminated by rapid filtration onto 96-well Unifilter GF/B filter plates (Perkin Elmer, Shelton, Conn.) using a 96-well tissue harvester (Packard) and followed by three filtration washes with 200 μl ice-cold binding buffer (10 mM NaH2PO4, 10 mM Na2HPO4, pH 7.4). Filter plates were subsequently dried at 50° C. for 2-3 hours. Fifty μl/well scintillation cocktail (Perkin Elmer, Shelton, Conn.) was added and plates were counted in a Packard Top-Count for 1 min/well.
(§7) GTP EC50 is the concentration of a compound providing 50% of the maximal response for the compound at a κ receptor.
(§8) κ GTP Emax (%) is the maximal effect elicited by a compound relative to the effect elicited by U69,593.
(§9) In TABLE 4, activity response of certain Compounds of the Invention to the μ- and κ-opioid receptors was determined as described above for functional assays using U-2 OS cells.

Assay [4] addresses T2, κ opioid receptor. The assay can be described thus: κ-opioid receptor [35S]GTPγS functional assay (HEK). The class given is biochemical. The settings on record: for Emax: HEK, GTPγS, relative to U69,593. The protocol: as §6, §7, §8, §4
The target of assay [5] is T1, μ-opioid receptor. As to the kind of experiment: μ-opioid receptor [35S]GTPγS functional assay (U-2 OS). The class given is biochemical. The settings on record: for Emax: U2OS, GTPγS, relative to DAMGO. The protocol:
as §1, §2, §3, §9

Assay [6] has as its target T2, κ opioid receptor. As to the kind of experiment: κ-opioid receptor radioligand dose-displacement binding assay (HEK). The conditions noted are these: HEK cells; [3H]-U69,593. The protocol:
Membranes from recombinantHEK-293 cells, CHO or U-2 OS cells expressing the recombinant human κ opioid receptor (κ) were prepared by lysing cells in ice cold hypotonic buffer (2.5 mM MgCl2, 50 mM HEPES, pH 7.4) (10 mL/10 cm dish) followed by homogenization with a tissue grinder/Teflon pestle. Membranes were collected by centrifugation at 30,000×g for 15 min at 4° C. and pellets were resuspended in hypotonic buffer to a final concentration of 1-3 mg/mL. Protein concentrations were determined using the BioRad protein assay reagent with bovine serum albumen as standard. Aliquots of κ receptor membranes were stored at −80° C.
Radioligand dose displacement assays used 0.4 nM [^3H]-U69,593 (GE Healthcare, Piscataway, N.J.; 40 Ci/mmole) with 15 μg membrane protein (recombinant κ opioid receptor expressed in HEK 293 cells; in-house prep) in a final volume of 200 μl binding buffer (5% DMSO, 50 mM Trizma base, pH 7.4). Non-specific binding was determined in the presence of 10 μM unlabeled naloxone or U69,593. All reactions were performed in 96-well polypropylene plates for 1 hour at a temperature of about 25° C. Binding reactions were terminated by rapid filtration onto 96-well Unifilter GF/C filter plates (Perkin Elmer, Shelton, Conn.) presoaked in 0.5% polyethylenimine (Sigma). Harvesting was performed using a 96-well tissue harvester (Perkin Elmer, Shelton, Conn.) followed by five filtration washes with 200 μl ice-cold binding buffer. Filter plates were subsequently dried at 50° C. for 1-2 hours. Fifty μl/well scintillation cocktail (Perkin Elmer, Shelton, Conn.) was added and plates were counted in a Packard Top-Count for 1 min/well.
as §5

With `COc1ccc2c(c1)[C@]13CCN(CC4CC4)[C@H](C2)[C@]1(O)C[C@H]1CC(=O)N[C@H]1C3` [Compound 1, (6R,6aS,7aS,10aS,11aR)-14-(cyclopropylmethyl)-6a-hydroxy-2-methoxy-5,6,6a,7,7a,8,10a,11-octahydro-6,11a-(epiminoethano)naphtho[2,1-f]indol-9(10H)-one], the 50% effective concentration (EC50) on μ-opioid receptor [1] was determined as 821 ± 190 nM; at κ opioid receptor [3], 66.9 ± 3.47 nM; at κ opioid receptor [4], 1770 ± 713 nM; at μ-opioid receptor [5], 223 ± 42 nM. Also, the Emax at μ-opioid receptor [1] amounted to 25.8 ± 0.48%; at κ opioid receptor [3], 99 ± 1.53%; on κ opioid receptor [4] it was 77 ± 8.19%; at μ-opioid receptor [5], 81.7 ± 3.33%. The results for the Ki at μ-opioid receptor [2] and on κ opioid receptor [6] were 533 ± 170 nM and 12.4 ± 3.09 nM, respectively.
Regarding `O=C1C[C@@H]2C[C@@]3(O)[C@H]4Cc5ccc(O)cc5[C@@]3(CCN4CCc3ccccc3)C[C@@H]2N1` [Compound 5, (6R,6aS,7aS,10aS,11aR)-2,6a-dihydroxy-14-phenethyl-5,6,6a,7,7a,8,10a,11-octahydro-6,11a-(epiminoethano)naphtho[2,1-f]indol-9(10H)-one], at μ-opioid receptor [1], the EC50 was determined as 1.94 ± 0.073 nM and the Emax worked out at 99.7 ± 2.03%. Also, at κ opioid receptor [4], the EC50 is > 20000 nM and the Emax was -0.25 ± 0.75%. At κ opioid receptor [6], this compound returned a Ki of 4.03 ± 0.7 nM.
In the case of `COc1ccc2c(c1)[C@]13CCN(CC4CC4)[C@H](C2)[C@]1(O)CC1=CC(=O)NC1C3` (stereo partly drawn) [Compound 8, (6R,6aS,11aR)-14-(cyclopropylmethyl)-6a-hydroxy-2-methoxy-5,6,6a,7,10a,11-hexahydro-6,11a-(epiminoethano)naphtho[2,1-f]indol-9(10H)-one], the EC50 is > 20000 nM at μ-opioid receptor [1], 585 ± 29.3 nM on κ opioid receptor [3], 1750 ± 197 nM at κ opioid receptor [4] and 846 ± 72.5 nM on μ-opioid receptor [5]. For the same compound, the Emax was -0.33 ± 0.67% at μ-opioid receptor [1], 115 ± 3.53% on κ opioid receptor [3], 66.7 ± 1.33% on κ opioid receptor [4] and 49 ± 1% at μ-opioid receptor [5].
As to `O=C1C=C2C[C@@]3(O)[C@H]4Cc5ccc(O)cc5[C@@]3(CCN4CC3CC3)CC2N1` (stereo partly drawn) [Compound 9, (6R,6aS,11aR)-14-(cyclopropylmethyl)-2,6a-dihydroxy-5,6,6a,7,10a,11-hexahydro-6,11a-(epiminoethano)naphtho[2,1-f]indol-9(10H)-one], the 50% effective concentration (EC50) was > 20000 nM at μ-opioid receptor [1], 4.96 ± 0.59 nM at κ opioid receptor [3], 7.24 ± 1.69 nM on κ opioid receptor [4] and 6.35 ± 1.74 nM on μ-opioid receptor [5]. Further, the Emax on μ-opioid receptor [1] turned out to be 1%; at κ opioid receptor [3], 87.5 ± 6.44%; on κ opioid receptor [4] it was 27.2 ± 3.45%; on μ-opioid receptor [5] it was 19.5 ± 0.29%. Further, the Ki at μ-opioid receptor [2] was found to be 2.34 ± 0.27 nM; at κ opioid receptor [6], 2.16 ± 0.45 nM.
On to `O=C1C[C@@H]2C[C@@]3(O)[C@H]4Cc5ccc(O)cc5[C@@]3(CCN4CC3CC3)C[C@@H]2N1` [Compound 10, (6R,6aS,7aS,10aS,11aR)-14-(cyclopropylmethyl)-2,6a-dihydroxy-5,6,6a,7,7a,8,10a,11-octahydro-6,11a-(epiminoethano)naphtho[2,1-f]indol-9(10H)-one], for which the 50% effective concentration (EC50) on μ-opioid receptor [1] was > 20000 nM; on κ opioid receptor [3], 0.42 ± 0.027 nM; on κ opioid receptor [4] it was 1 ± 0.18 nM; on μ-opioid receptor [5], 1.59 ± 0.19 nM. Also, the Emax at μ-opioid receptor [1] came out at 0%; at κ opioid receptor [3] it was 112 ± 2.65%; at κ opioid receptor [4] it was 76.2 ± 5.39%; at μ-opioid receptor [5], 46 ± 1%. Also, the values for the Ki at μ-opioid receptor [2] and at κ opioid receptor [6] were 0.8 ± 0.1 nM and 0.16 ± 0.017 nM, respectively.
Turning to `CCN1C(=O)C[C@@H]2C[C@@]3(O)[C@H]4Cc5ccc(O)cc5[C@@]3(CCN4CC3CC3)C[C@@H]21` [Compound 16, (6R,6aS,7aS,10aS,11aR)-14-(cyclopropylmethyl)-10-ethyl-2,6a-dihydroxy-5,6,6a,7,7a,8,10a,11-octahydro-6,11a-(epiminoethano)-naphtho[2,1-f]indol-9(10H)-one], on μ-opioid receptor [1], the EC50 worked out at 4.18 ± 0.61 nM and the Emax is 20 ± 0.91%. On κ opioid receptor [4], the EC50 is 0.66 ± 0.059 nM and the Emax stood at 49.7 ± 2.19%. At κ opioid receptor [6], this compound yielded an inhibition constant (Ki) of 0.31 ± 0.085 nM.

Source of the values: US10435406B2, “6,7-cyclicmorphinan derivatives and use thereof” (Purdue Pharma L.P., priority 2014, dated 2019).
